“And” between values parts separate entries of the source, which are not always exact repeats. Identical values can stand only once.

The test system of data set [1] is Campylobacter jejuni ATCC 33291. Kind of data set: Food contact suspension test (FCS, AOAC 960.09). Format: cell-based. The following applies: for concentration required for efficacy: 75° F., FIG. 6; for Avg. Log10 Growth / Log10 Reduction: 30 second. The protocol: Antimicrobial Efficacy of Peroxylactic Acid. The antimicrobial efficacy of generated peroxylactic acid was evaluated following the US EPA food contact suspension test protocol (AOAC 960.09) against Staphylococcus aureus and Escherichia coli according to the conditions set forth in Table 7.
Additional efficacy testing against Campylobacter jejuni ATCC 33291 as described in Table 10 was completed to compare efficacy at 75° F. of lactic acid, peroxylactic acid (PLA) and peroxyacetic acid (PAA). […] In particular, in comparison to lactic acid substantially lower concentrations are required (25 ppm PLA instead of approximately 5000 ppm lactic acid).
Beneficially, the concentration of peroxylactic acid required for micro efficacy are substantially lower than lactic acid and the lactic acid which is formed upon degradation of the peroxylactic acid is further beneficial for micro efficacy.

Data set [2] can be described thus: Kinetic instability of peroxylactic acid generated through equilibrium reaction of lactic acid and hydrogen peroxide (FIG. 4). In kind it is physicochemical. As to conditions: generated through equilibrium between lactic acid and H2O2, FIG. 4. The protocol: Comparison of Lactide Ester to Lactic Acid Precursor to Generate Peroxylactic Acid. The equilibrium reaction using lactic acid reagent for generating perlactic acid was performed to show the distinct advantages of the methods of generation according to the invention. […] It is also known that the reaction results in additional byproducts—which may not be suitable for various applications of use.
This makes it commercially not feasible to deliver the compositions for end application at customer locations.

The test system of data set [3] is Listeria monocytogenes ATCC 49594. Briefly: Food contact suspension test (FCS, AOAC 960.09). In kind it is cell-based. The following applies: 30 second. As to the method:
(§1) Additional antimicrobial efficacy of generated peroxylactic acid was evaluated following the US EPA food contact suspension test protocol (AOAC 960.09) against Salmonella, E. coli, Campylobacter and Listeria according to the conditions set forth in Table 16.

The subject of data set [4] is Salmonella, E. coli, Campylobacter and Listeria. Kind of data set: Food contact suspension test (AOAC 960.09), FIG. 7. Format: cell-based. The following applies: 30 seconds. As to the method:
as §1
In addition at 100 ppm PLA provides efficacy of greater than 7 log reduction against Listeria, whereas peroxyacetic acid is known to require at least about 180 ppm for greater than 7 log reduction against Listeria.

With `CC(O)C(=O)O` (stereo not drawn) [Lactic Acid, reference compound], the “concentration required for efficacy” value in data set [1] is reported as “approximately 5000 ppm”.

As to `CC(O)C(=O)OO` (stereo not drawn) [PLA, peroxylactic acid], the “stability of generated perlactic acid” value in data set [2] is on record as “very unstable”. Further, the “Avg. Log10 Growth” value in data set [1] (25 ppm PLA) is recorded as <1.00 Log10; in data set [1] (50 ppm PLA) it was <1.00 Log10; in data set [1] (75ppm PLA), <1.00 Log10; in data set [3] (50 ppm PLA), 5.84 Log10; in data set [3] (100 ppm PLA) it was <1.00 Log10; in data set [3] (150 ppm PLA), <1.00 Log10. Also, the “Log10 Reduction” value in data set [1] (25 ppm PLA) was >7.06 Log10; in data set [1] (50 ppm PLA), >7.06 Log10; in data set [1] (75ppm PLA) it was >7.06 Log10; in data set [3] (50 ppm PLA) it was 2.23 Log10; in data set [3] (100 ppm PLA) it was >7.06 Log10; in data set [3] (150 ppm PLA) it was >7.06 Log10. Moreover, the “concentration required for efficacy” value in data set [1] is on record as 25 ppm. Moreover, the CFU/mL in data set [3] (50 ppm PLA) was 6.90E+05 CFU/mL and 6.80E+05 CFU/mL. For the same molecule, in data set [3] (50 ppm PLA), the “Log10 Growth” value is 5.84 Log10 and 5.83 Log10. The “low concentration dose providing efficacy against various microbes” value in data set [4] amounted to 25 ppm.

Values taken from patent US11820737B2, “Generation of peroxyhydroxycarboxylic acid and the use thereof” (ECOLAB USA INC., priority 2020, dated 2023).
